Assay results as given in ChEMBL document CHEMBL5465560, “Selectivity Literature for EUbOPEN Chemogenomic Library” (2024).

What was measured:
[1] = molecular target: T1, Dual serine/threonine and tyrosine protein kinase (Homo sapiens) (UniProt Q6XUX3); test: Selectivity interaction (KinomeScan (DiscoverX)) EUB0000229b DSTYK; conditions: at 10 µM
T1 sequence (whole entry): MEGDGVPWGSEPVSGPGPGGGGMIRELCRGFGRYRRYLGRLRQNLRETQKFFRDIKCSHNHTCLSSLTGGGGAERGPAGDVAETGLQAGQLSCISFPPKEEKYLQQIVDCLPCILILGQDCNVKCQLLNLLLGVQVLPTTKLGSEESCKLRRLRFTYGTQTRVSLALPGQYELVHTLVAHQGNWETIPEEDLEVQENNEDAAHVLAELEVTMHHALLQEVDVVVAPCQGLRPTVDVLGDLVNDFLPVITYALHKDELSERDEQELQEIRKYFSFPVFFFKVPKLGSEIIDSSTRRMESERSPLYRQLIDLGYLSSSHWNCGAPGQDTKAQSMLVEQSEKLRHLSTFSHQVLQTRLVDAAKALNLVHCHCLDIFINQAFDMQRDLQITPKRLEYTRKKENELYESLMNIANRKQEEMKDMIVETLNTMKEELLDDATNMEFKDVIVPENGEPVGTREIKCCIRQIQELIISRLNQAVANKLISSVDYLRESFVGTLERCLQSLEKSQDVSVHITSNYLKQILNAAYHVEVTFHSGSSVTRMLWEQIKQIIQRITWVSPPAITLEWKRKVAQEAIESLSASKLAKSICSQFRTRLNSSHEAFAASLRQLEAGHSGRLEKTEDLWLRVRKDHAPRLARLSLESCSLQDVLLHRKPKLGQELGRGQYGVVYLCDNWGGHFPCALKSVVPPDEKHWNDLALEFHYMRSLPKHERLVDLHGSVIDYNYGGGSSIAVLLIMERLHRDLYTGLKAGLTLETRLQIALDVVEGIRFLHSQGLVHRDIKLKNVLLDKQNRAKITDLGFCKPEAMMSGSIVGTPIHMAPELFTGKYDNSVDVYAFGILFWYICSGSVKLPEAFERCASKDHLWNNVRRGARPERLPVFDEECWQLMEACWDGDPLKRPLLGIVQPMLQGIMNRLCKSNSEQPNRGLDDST

[2] = molecular target: T2, Bone morphogenetic protein receptor type-2 (Homo sapiens) (UniProt Q13873); test: Selectivity interaction (Kinase panel (DSF assay)) EUB0001559a BMPR2
T2 sequence (whole entry): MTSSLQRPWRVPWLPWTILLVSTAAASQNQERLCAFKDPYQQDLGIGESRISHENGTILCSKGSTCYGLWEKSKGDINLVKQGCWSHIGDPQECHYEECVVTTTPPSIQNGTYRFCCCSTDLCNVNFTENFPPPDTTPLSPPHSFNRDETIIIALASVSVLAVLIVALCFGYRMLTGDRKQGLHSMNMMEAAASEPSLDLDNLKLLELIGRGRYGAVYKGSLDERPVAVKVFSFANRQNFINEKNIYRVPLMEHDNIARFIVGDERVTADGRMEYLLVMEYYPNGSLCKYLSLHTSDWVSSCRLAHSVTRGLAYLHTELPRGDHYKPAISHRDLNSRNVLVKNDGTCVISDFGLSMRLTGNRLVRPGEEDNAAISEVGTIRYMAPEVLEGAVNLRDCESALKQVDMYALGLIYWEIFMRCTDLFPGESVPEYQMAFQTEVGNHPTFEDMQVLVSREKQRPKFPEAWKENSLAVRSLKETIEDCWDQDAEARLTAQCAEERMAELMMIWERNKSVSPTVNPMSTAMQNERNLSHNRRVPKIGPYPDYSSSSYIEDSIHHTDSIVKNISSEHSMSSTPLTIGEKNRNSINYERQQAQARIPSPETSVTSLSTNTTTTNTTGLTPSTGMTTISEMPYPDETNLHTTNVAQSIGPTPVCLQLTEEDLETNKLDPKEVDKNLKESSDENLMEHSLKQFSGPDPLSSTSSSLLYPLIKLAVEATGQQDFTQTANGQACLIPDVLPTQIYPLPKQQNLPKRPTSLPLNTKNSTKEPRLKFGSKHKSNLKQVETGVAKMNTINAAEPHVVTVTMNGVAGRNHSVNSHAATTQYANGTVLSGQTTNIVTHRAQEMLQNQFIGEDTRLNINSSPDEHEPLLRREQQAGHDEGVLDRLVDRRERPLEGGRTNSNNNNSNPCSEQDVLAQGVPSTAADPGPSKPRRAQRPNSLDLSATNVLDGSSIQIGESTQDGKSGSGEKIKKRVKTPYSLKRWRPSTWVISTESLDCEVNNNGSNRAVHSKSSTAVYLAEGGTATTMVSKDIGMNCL

[3] = molecular target: Protein kinase C eta type (Homo sapiens) (UniProt P24723); test: Selectivity interaction (KinomeScan (DiscoverX)) EUB0000595a PRKCH; conditions: at 10 µM
[4] = molecular target: 5'-AMP-activated protein kinase catalytic subunit alpha-1 (Homo sapiens, UniProt Q13131); test: Selectivity interaction (Kinase panel (Enzyme activity assay)) EUB0000612a PRKAA1
[5] = molecular target: RAC-alpha serine/threonine-protein kinase (Homo sapiens, UniProt P31749)
[6] = molecular target: T3, Mitogen-activated protein kinase 13 (Homo sapiens) (UniProt O15264); test: Selectivity interaction (SelectScreen profiling (Invitrogen)) EUB0000607a MAPK13; conditions: at 2 µM
T3 sequence (whole entry): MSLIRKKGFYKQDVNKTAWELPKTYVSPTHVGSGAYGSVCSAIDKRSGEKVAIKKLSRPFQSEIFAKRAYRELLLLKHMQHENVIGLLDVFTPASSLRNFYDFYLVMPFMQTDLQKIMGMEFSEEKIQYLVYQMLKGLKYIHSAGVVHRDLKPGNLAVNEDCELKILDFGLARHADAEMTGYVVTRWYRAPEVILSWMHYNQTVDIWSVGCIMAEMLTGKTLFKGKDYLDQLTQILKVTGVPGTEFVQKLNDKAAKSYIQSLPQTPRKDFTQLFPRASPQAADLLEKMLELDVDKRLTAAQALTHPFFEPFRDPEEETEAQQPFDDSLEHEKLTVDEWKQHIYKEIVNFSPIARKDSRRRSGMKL

Chain of RAC-alpha serine/threonine-protein kinase (P31749 whole entry): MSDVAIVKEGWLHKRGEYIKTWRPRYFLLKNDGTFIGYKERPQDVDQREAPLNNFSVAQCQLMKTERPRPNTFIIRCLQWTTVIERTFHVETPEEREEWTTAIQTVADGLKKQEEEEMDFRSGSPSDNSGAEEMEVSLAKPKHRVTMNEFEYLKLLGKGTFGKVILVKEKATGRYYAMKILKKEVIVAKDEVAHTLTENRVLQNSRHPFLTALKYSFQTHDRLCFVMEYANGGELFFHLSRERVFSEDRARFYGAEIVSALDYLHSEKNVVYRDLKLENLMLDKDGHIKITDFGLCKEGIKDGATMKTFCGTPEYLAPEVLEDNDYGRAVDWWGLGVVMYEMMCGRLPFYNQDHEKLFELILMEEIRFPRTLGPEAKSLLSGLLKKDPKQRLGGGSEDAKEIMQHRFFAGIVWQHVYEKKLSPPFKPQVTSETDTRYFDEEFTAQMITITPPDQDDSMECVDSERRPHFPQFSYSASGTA
Chain of 5'-AMP-activated protein kinase catalytic subunit alpha-1 (Q13131 whole entry): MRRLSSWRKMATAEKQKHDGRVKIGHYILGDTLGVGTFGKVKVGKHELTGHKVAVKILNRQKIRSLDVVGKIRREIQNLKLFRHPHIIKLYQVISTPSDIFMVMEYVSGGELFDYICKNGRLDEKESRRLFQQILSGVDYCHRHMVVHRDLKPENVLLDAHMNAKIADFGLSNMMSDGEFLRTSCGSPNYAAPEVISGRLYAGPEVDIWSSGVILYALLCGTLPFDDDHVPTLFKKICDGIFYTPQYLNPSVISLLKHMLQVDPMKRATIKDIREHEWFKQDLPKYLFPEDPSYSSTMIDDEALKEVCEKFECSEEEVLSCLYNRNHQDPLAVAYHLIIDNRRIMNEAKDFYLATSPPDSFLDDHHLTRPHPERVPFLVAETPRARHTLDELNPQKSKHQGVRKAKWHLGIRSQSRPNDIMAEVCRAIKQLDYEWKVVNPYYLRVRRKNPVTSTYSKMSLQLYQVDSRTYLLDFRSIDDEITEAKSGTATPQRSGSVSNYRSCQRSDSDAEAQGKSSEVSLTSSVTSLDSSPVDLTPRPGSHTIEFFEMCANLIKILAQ
Chain of Protein kinase C eta type (Homo sapiens) (P24723 whole entry): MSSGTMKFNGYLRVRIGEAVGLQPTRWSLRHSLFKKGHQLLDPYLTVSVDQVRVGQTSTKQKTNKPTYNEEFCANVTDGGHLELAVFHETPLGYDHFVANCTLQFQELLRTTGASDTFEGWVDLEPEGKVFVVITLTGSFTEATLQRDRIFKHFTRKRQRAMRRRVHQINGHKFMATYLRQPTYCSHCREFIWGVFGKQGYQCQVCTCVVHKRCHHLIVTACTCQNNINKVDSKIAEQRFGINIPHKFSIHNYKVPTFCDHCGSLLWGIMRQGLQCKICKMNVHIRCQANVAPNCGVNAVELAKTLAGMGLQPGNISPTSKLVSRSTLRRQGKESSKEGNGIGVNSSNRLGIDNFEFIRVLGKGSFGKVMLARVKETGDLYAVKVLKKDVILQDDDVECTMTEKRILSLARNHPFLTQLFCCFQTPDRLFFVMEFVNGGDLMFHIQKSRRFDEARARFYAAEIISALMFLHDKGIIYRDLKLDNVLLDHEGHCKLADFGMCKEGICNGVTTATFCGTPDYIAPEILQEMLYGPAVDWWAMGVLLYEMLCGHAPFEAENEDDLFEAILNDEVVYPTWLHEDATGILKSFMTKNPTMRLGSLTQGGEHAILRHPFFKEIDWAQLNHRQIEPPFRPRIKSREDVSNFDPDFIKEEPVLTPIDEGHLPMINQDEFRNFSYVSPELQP

SMILES: COc1cc(N(C)c2ccnc3ccc(C(F)(F)F)cc23)cc(OC)c1OC
- % binding [1]: 82%

SMILES: CN(C(=O)c1cnn2cccnc12)c1cc2c(cc1N1CCOCC1)C(=O)N(C[C@@H](F)C(C)(C)O)C2
- dTM [2]: -0.3 K

SMILES: COCC(=O)NC/C=C/c1ccc2ncnc(Nc3ccc(Oc4ccc(C)nc4)c(C)c3)c2c1 [CP-724714]
- % of control [3]: 100%

SMILES: CCc1cccc(CC)c1NC(=O)c1nn(C)c2c1CCc1cnc(Nc3ccc(C(=O)NC4CCN(C)CC4)cc3OC(F)(F)F)nc1-2
- IC50 [4]: > 10 µM
- IC50 [5]: > 10 µM

SMILES: CNC(=O)Nc1ccc(-c2nc(N3CC4CCC(C3)O4)c3cnn(C4CCC5(CC4)OCCO5)c3n2)cc1
- % of inhibition [6]: 4%
